Measured values as given in patent US5712300A, “Hydroxamic acid derivatives useful for the treatment of diseases related to connective tissue degradation” (priority 1997, dated 1998).
pKi: −log10 of the molar value.

Legend:
Type in all cases: biochemical
[1] = biological target: Stromelysin (Homo sapiens, UniProt P08254); experiment: MMP inhibition by particle concentration fluorescence technique (stromelysin); conditions: pH 7.5; 15 min enzyme preincubation; substrate 1-3 h at room temperature; read-out: MMP Inhibition Constants, Stromelysin Ki
Stromelysin, sequence (P08254 100-477): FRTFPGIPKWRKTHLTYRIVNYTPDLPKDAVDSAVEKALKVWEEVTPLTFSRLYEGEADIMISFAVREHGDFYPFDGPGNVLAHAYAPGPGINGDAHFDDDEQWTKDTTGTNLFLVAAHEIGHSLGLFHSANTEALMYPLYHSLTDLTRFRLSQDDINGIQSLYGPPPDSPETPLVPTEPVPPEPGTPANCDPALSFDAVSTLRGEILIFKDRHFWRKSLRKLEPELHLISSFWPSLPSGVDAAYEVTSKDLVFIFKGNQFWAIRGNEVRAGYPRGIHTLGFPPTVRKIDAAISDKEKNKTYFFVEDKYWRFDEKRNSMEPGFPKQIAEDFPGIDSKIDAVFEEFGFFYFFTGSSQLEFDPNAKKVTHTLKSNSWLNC
In short: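 Fluorescein- and biotin-labelled substrate captured on avidin particles after reaction; intact, uncleaved substrate retains fluorescence, so signal rises with inhibition. Activated enzyme incubated with two-fold serial compound dilutions 15 minutes at room temperature.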

[2] = biological target: Gelatinase; experiment: MMP inhibition by particle concentration fluorescence technique (gelatinase); conditions: pH 7.5; 15 min enzyme preincubation; substrate 1-3 h at room temperature; read-out: MMP Inhibition Constants, Gelatinase Ki
In short: (§1)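 Compound serially diluted two-fold in 50 mM Tris-HCl pH 7.5, 150 mM NaCl, preincubated 15 min with activated enzyme at room temperature. Fluorescein/biotin-tagged substrate then added for 1-3 hours in the dark. Intact substrate captured on avidin-coated particles; fluorescence signal indicates inhibition.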

[3] = biological target: T1, Collagenase (Homo sapiens, UniProt P03956); experiment: MMP inhibition by particle concentration fluorescence technique (collagenase); conditions: pH 7.5; 15 min enzyme preincubation; substrate 1-3 h at room temperature; read-out: MMP Inhibition Constants, Collagenase Ki
T1 sequence (P03956 100-469): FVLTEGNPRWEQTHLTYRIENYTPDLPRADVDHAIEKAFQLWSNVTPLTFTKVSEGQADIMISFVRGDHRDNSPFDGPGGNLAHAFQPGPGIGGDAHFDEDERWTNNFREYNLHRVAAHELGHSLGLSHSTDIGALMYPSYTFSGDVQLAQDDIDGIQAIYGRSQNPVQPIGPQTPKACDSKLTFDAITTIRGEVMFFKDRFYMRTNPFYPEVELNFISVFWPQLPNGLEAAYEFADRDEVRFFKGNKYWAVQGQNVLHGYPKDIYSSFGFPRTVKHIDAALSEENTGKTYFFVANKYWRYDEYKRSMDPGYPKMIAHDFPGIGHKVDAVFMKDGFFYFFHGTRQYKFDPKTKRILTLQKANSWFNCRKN
In short: as §1

Structure (SMILES): CC(C)C[C@@]1([C@@H](CCNC(=O)c2cccc([N+](=O)[O-])c2)C(=O)NO)CCN(CCc2ccccc2)C1=O (relative stereo) [Example 76, N-Hydroxy-3-(2-methylpropyl)-α-[2-[(3-nitrobenzoyl)amino]ethyl]-2-oxo-1-(2-phenylethyl)-3-pyrrolidineacetamide]
- pKi [1]: 4.97
- pKi [2]: 5.48
- pKi [3]: 6.53

Structure (SMILES): CC(C)C[C@@]1(CC(=O)NO)CCN([C@@H](Cc2ccccc2)C(=O)Nc2ccncc2)C1=O [Example 41, [S-(R*,R*)]-N^3 -Hydroxy-3-(2-methylpropyl)-2-oxo-α^1-(phenylmethyl)-N^1-(4-pyridinyl)-1,3-pyrrolidinediacetamide]
- pKi [1]: 7.85
- pKi [2]: 8.64
- pKi [3]: 8.55

Structure (SMILES): COc1ccc(S(=O)(=O)NC[C@H](C(=O)NO)[C@]2(CC(C)C)CCN(CCc3ccccc3)C2=O)cc1 (relative stereo) [Example 90, N-Hydroxy-α-[[[(4-methoxyphenyl)sulfonyl]amino]methyl]-3-(2-methylpropyl)-2-oxo-1-(2-phenylethyl)-3-pyrrolidineacetamide]
- pKi [1]: 5.75
- pKi [2]: 6.20
- pKi [3]: 7.28

Structure (SMILES): CNC(=O)[C@H](CCc1ccccc1)N1CC[C@](CC(=O)NO)(CC(C)C)C1=O [Example 47, [S-(R*,R*)]-N^3 -Hydroxy-N^1-methyl-3-(2-methylpropyl)-2-oxo-α^1-(2-phenylethyl)-1,3-pyrrolidinediacetamide]
- pKi [1]: 6.06
- pKi [2]: 7.07
- pKi [3]: 7.09

Structure (SMILES): CC(C)C[C@@]1([C@@H](CCN2Cc3cc(F)ccc3C2=O)C(=O)NO)CCN(CCc2ccccc2)C1=O [Example 88, [R-(R*,S*)]-5-Fluoro-1,3-dihydro-N-hydroxy-α-[3-(2-methylpropyl)-2-oxo-1-(2-phenylethyl)-3-pyrrolidinyl]-1-oxo-2H-isoindole-2-butanamide]
- pKi [1]: 6.54
- pKi [2]: 7.21
- pKi [3]: 6.49

Structure (SMILES): CC(C)C[C@@]1([C@@H](CCCN2C(=O)c3ccccc3C2=O)C(=O)NO)CCN(CCc2ccccc2)C1=O (relative stereo) [Example 15]
- pKi [1]: 6.73
- pKi [2]: 6.11
- pKi [3]: 4.67

Structure (SMILES): CC(C)C[C@@]1(CC(=O)NO)CCN([C@@H](Cc2ccccc2)C(=O)NCCN2CCOCC2)C1=O [Example 54, [S-(R*,R*)]-N^3 -Hydroxy-3-(2-methylpropyl)-N^1-[2-(4-morpholinyl)ethyl]-2-oxo-α^1-(phenylmethyl)-1,3-pyrrolidinediacetamide]
- pKi [1]: 6.15
- pKi [2]: 7.15
- pKi [3]: 7.12

Structure (SMILES): CC(C)C[C@@]1([C@@H](CCNC(=O)c2ccc(F)cc2)C(=O)NO)CCN(CCc2ccccc2)C1=O (relative stereo) [Example 75, α-[2-[(4-Fluorobenzoyl)amino]ethyl]-N-hydroxy-3-(2-methylpropyl)-2-oxo-1-(2-phenylethyl)-3-pyrrolidineacetamide]
- pKi [1]: 6.53
- pKi [2]: 6.58
- pKi [3]: 7.13

Structure (SMILES): CC(C)C[C@@]1([C@@H](CCN2C(=O)c3ccccc3C2=O)C(=O)NO)CCN(CCCc2ccccc2)C1=O (relative stereo) [Example 67, α-[2-(1,3-Dihydro-1,3-dioxo-2H-isoindol-2-yl)ethyl]-N-hydroxy-3-(2-methylpropyl)-2-oxo-1-(3-phenylpropyl)-3-pyrrolidineacetamide]
- pKi [1]: 6.67
- pKi [2]: 7.44
- pKi [3]: 5.30

Structure (SMILES): CC(C)C[C@@]1([C@@H](CCN2C(=O)c3ccc(F)cc3C2=O)C(=O)NO)CCN(CCc2ccccc2)C1=O (relative stereo) [Example 14, α-[2-(5-Fluoro-1,3-dihydro-1,3-dioxo-2H-isoindol-2-yl)ethyl]-N-hydroxy-3-(2-methylpropyl)-2-oxo-1-(2-phenylethyl)-3-pyrrolidineacetamide]
- pKi [1]: 7.34
- pKi [2]: 7.01
- pKi [3]: 6.27

Structure (SMILES): CNC(=O)[C@H](Cc1ccccc1)N1CC[C@](CC(=O)NO)(CC(C)C)C1=O [Example 30, [S-(R*,R*)]-N^3 -Hydroxy-N^1-methyl-3-(2-methylpropyl)-2-oxo-α^1-(phenylmethyl)-1,3-pyrrolidinediacetamide]
- pKi [1]: 5.98
- pKi [2]: 7.62
- pKi [3]: 7.80

Structure (SMILES): O=C(NCC[C@@H](C(=O)NO)[C@]1(CCCO)CCN(CCc2ccccc2)C1=O)c1ccc(F)c(F)c1 (relative stereo) [Example 94, α-[2-[(3,4-Difluorobenzoyl)amino]ethyl]-N-hydroxy-3-(3-hydroxypropyl)-2-oxo-1-(2-phenylethyl)-3-pyrrolidineacetamide]
- pKi [1]: 7.80
- pKi [2]: 8.92
- pKi [3]: 7.87

Structure (SMILES): CC(C)C[C@@]1(CC(=O)NO)CCN([C@@H](Cc2ccccc2)C(=O)NCCc2ccccc2)C1=O [Example 31, [S-(R*,R*)]-N^3 -Hydroxy-3-(2-methylpropyl)-2-oxo-N^1-(2-phenethyl)-α^1-(phenylmethyl)-1,3-pyrrolidinediacetamide]
- pKi [1]: 6.29
- pKi [2]: 7.71
- pKi [3]: 7.02

Structure (SMILES): CC(C)C[C@@]1(CC(=O)NO)CCN([C@@H](Cc2ccccc2)C(=O)Nc2ccccn2)C1=O [Example 57, [S-(R*,R*)]-N^3 -Hydroxy-3-(2-methylpropyl)-2-oxo-α^1-(phenylmethyl)-N^1-2-pyridinyl-1,3-pyrrolidinediacetamide]
- pKi [1]: 7.12
- pKi [2]: 8.02
- pKi [3]: 7.92

Structure (SMILES): CC(C)C[C@@]1(CC(=O)NO)CCN([C@H](C(=O)NCC2CC2)C2CCCCC2)C1=O (relative stereo) [Example 59, [S-(R*,R*)]-α^1 -Cyclohexyl-N^1-cyclopropylmethyl-N^3-hydroxy-3-(2-methylpropyl)-2-oxo-1,3-pyrrolidinediacetamide]
- pKi [1]: 6.64
- pKi [2]: 7.96
- pKi [3]: 8.48

Structure (SMILES): CC(C)C[C@@]1([C@@H](NS(=O)(=O)c2ccc(F)cc2)C(=O)NO)CCN(CCc2ccccc2)C1=O (relative stereo) [Example 92, α-[[(4-Fluorophenyl)sulfonyl]amino]-N-hydroxy-3-(2-methylpropyl)-2-oxo-1-(2-phenylethyl)-3-pyrrolidineacetamide]
- pKi [1]: 6.51
- pKi [2]: 6.56
- pKi [3]: 6.43

Structure (SMILES): CC(C)C[C@@]1([C@@H](CCN2C(=O)c3ccccc3C2=O)C(=O)NO)CCN(CCc2ccc(F)cc2)C1=O (relative stereo) [Example 68, 1-[2-(4-Fluorophenyl)ethyl]-α-[2-(1,3-dihydro-1,3-dioxo-2H-isoindol-2-yl)ethyl]-N-hydroxy-3-(2-methylpropyl)-2-oxo-3-pyrrolidineacetamide]
- pKi [1]: 6.46
- pKi [2]: 6.80
- pKi [3]: 5.84

Structure (SMILES): CC(C)C[C@@]1([C@@H](CCNC(=O)c2cccc(F)c2)C(=O)NO)CCN(CCc2ccccc2)C1=O [Example 74, [R-(R*,S*)-α-[2-[(3-Fluorobenzoyl)amino]ethyl]-N-hydroxy-3-(2-methylpropyl)-2-oxo-1-(2-phenylethyl)-3-pyrrolidineacetamide]
- pKi [1]: 7.28
- pKi [2]: 7.68
- pKi [3]: 7.59

Structure (SMILES): CNC(=O)[C@H](Cc1ccccc1)N1CC[C@@](CC(C)C)([C@H](CCNC(=O)c2ccccc2)C(=O)NO)C1=O [Example 53, [3S-[1(R*),3R*(R*)]]-α^3-[2-(Benzoylamino)ethyl]-N^3-hydroxy-N^1-methyl-3-(2-methylpropyl)-2-oxo-α^1-(phenylmethyl)-1,3-pyrrolidinediacetamide]
- pKi [1]: 7.98
- pKi [2]: 8.97
- pKi [3]: 9.16
